Assay results published in ChEMBL document CHEMBL3856243, “Structure-Activity Relationships and Kinetic Studies of Peptidic Antagonists of CBX Chromodomains” (J Med Chem, 2016).
pIC50: −log10 of the molar value. Activity calls are given as the source filed them. The rule behind the calls is not given here. Numbered stars: 1 amine (or outer) side, 2 acyl side, 3 side chain; on linkers, the order of the positions; unused ones are H or OH. Square brackets hold non-standard residues; d marks the D form. Peptide text beside a SMILES is read from it. * marks the point of attachment. X17 = CC(=O)N(CCCC[C@H](N[*:1])C(=O)[*:2])C1CC2CCC1C2; X5 = O=C([C@H](CCCCNC1C2CC3CC(C2)CC1C3)N[*:1])[*:2]; X3 = CN(C)C(NCCCC[C@H](N[*:1])C(=O)[*:2])=[N+](C)C; X15 = O=C([C@H](CCCCNC1CN2CCC1CC2)N[*:1])[*:2]; X14 = CCCN(CCCC[C@H](N[*:1])C(=O)[*:2])C(C)C; X8 = O=C([C@H](CCCCNC1CC2CCC1C2)N[*:1])[*:2]; Phe(4-CH2NH2) = NCc1ccc(C[C@H](N)C(=O)O)cc1; X19 = CN(CCCC[C@H](N[*:1])C(=O)[*:2])C1CNC1; Acetyl(2-naphthyl) = O=C(Cc1ccc2ccccc2c1)*; Lys(Et,iPr) = CCN(CCCC[C@H](N)C(=O)O)C(C)C; Benzoyl(4-tBu) = CC(C)(C)c1ccc(C(=O)*)cc1; Lys(Et2) = CCN(CC)CCCC[C@H](N)C(=O)O; Benzoyl(4-OMe) = COc1ccc(C(=O)*)cc1; Benzoyl(4-Me) = Cc1ccc(C(=O)*)cc1; X18 = O=C(Cc1c[nH]c2ccccc12)*; X2 = Cc1cccc(C(=O)*)c1; Boc = CC(C)(C)OC(=O)*; X1 = Cc1ccccc1C(=O)*; Bz = O=C(c1ccccc1)*

Experiments:
[1] = target: T1, Chromobox protein homolog 7 (Homo sapiens) (UniProt O95931); test: Binding affinity to recombinant human C-terminal His-tagged CBX7 chromodomain (8 to 62 residues) expressed in Escherichia coli Rosetta BL21(DE3)pLysS by SPR method
T1 sequence (whole entry): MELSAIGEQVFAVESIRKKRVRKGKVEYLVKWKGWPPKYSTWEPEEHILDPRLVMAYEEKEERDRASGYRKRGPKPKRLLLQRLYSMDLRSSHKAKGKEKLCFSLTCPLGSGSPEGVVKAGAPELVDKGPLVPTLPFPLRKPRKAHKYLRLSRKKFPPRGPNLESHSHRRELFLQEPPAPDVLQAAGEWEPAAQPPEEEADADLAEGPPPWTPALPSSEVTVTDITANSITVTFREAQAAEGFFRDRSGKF

[2] = target: Chromobox protein homolog 5 (Homo sapiens, UniProt P45973); test: Antagonist activity at recombinant human N-terminal His-tagged CBX5 chromodomain (18 to 75 residues) expressed in Escherichia coli Rosetta BL21(DE3)pLysS using ARTKQTARK(Me3)STGGKAPRKQL-K(Biotin)-NH2 measured after 30 mins by AlphaScreen assay
Chromobox protein homolog 5, sequence (P45973 whole entry, the tested form may be a part): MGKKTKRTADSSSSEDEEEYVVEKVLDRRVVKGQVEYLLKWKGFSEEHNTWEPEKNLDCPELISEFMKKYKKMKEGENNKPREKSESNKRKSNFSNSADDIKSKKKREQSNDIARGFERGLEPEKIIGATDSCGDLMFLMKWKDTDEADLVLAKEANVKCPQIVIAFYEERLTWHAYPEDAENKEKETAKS

[3] = target: T2, Chromobox protein homolog 7 (Homo sapiens, UniProt O95931); test: Antagonist activity at recombinant human C-terminal His-tagged CBX7 chromodomain (8 to 62 residues) expressed in Escherichia coli Rosetta BL21(DE3)pLysS using biotin-labeled UNC4195 measured after 30 mins by AlphaScreen assay
T2 sequence (O95931 whole entry): T1 sequence (whole entry)

[4] = target: T3, Chromobox protein homolog 8 (Homo sapiens, UniProt Q9HC52); test: Antagonist activity at recombinant human N-terminal His-tagged CBX8 chromodomain (8 to 61 residues) expressed in Escherichia coli Rosetta BL21(DE3)pLysS using biotin-labeled UNC4195 measured after 30 mins by AlphaScreen assay
T3 sequence (Q9HC52 whole entry): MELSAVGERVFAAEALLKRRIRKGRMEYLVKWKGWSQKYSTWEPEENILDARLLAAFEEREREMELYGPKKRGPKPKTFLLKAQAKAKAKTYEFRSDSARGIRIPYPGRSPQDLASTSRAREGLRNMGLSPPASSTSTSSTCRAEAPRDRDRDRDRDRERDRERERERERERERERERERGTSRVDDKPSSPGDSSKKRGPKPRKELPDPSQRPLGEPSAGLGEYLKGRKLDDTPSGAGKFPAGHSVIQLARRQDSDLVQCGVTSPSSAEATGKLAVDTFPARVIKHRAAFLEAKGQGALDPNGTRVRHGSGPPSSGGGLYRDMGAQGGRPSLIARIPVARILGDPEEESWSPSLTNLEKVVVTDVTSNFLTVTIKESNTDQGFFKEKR

[5] = target: T4, Chromodomain Y-like protein 2 (Homo sapiens, UniProt Q8N8U2); test: Antagonist activity at recombinant human C-terminal His-tagged CDYL2 chromodomain (1 to 75 residues) expressed in Escherichia coli Rosetta BL21(DE3)pLysS using biotin-labeled UNC4195 measured after 30 mins by AlphaScreen assay
T4 sequence (Q8N8U2 whole entry): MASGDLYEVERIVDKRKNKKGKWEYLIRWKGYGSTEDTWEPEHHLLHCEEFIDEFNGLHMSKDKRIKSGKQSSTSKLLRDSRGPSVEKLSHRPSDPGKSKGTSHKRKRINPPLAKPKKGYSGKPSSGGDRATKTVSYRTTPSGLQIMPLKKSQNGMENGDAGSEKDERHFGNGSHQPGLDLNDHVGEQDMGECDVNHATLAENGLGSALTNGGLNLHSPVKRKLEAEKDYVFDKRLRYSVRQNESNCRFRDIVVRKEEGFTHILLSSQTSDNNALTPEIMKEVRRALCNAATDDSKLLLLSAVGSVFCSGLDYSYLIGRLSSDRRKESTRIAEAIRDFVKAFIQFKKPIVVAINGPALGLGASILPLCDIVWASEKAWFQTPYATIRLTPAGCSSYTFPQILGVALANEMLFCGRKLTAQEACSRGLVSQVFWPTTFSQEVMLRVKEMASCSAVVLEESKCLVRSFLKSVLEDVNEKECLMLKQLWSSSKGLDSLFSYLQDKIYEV

[6] = target: T5, E3 SUMO-protein ligase CBX4 (Homo sapiens, UniProt O00257); test: Antagonist activity at recombinant human N-terminal His-tagged CBX4 chromodomain (8 to 65 residues) expressed in Escherichia coli Rosetta BL21(DE3)pLysS using biotin-labeled UNC4195 measured after 30 mins by AlphaScreen assay
T5 sequence (O00257 whole entry): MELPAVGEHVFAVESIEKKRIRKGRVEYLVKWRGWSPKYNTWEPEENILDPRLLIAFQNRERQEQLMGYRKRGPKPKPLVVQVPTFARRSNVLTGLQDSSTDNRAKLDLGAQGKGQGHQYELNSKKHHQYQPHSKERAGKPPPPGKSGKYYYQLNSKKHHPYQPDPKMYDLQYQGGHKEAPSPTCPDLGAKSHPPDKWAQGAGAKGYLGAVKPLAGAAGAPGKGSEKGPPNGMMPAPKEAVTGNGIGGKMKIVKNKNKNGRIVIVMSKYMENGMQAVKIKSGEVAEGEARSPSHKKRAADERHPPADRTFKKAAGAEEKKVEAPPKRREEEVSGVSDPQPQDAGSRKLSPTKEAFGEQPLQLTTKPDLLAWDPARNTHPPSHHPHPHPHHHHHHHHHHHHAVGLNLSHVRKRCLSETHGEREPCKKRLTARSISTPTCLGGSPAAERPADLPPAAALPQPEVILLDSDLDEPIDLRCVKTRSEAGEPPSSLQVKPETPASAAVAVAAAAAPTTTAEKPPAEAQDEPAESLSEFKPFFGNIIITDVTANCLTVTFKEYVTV

Compound | Activity [1] | pIC50 [2] | pIC50 [3] | pIC50 [4] | pIC50 [5] | pIC50 [6]
CCN(CC)CCCC[C@H](NC(=O)[C@H](CC(C)C)NC(=O)[C@H](C)NC(=O)[C@H](Cc1ccccc1)NC(=O)c1ccc(C)cc1)C(=O)N[C@@H](CO)C(=O)OC ({Benzoyl(4-Me)}-FAL[Lys(Et2)]S-OMe) | Active |  |  |  |  | 
CCN(CC)CCCC[C@H](NC(=O)[C@H](CC(C)C)NC(=O)[C@H](C)NC(=O)[C@H](Cc1ccc(CN)cc1)NC(=O)c1ccc(C(C)(C)C)cc1)C(=O)N[C@@H](CO)C(=O)OC ({Benzoyl(4-tBu)}-[Phe(4-CH2NH2)]AL[Lys(Et2)]S-OMe) |  | 4.28 | 7.20 | 5.62 | 7.12 | 
CCCN(CCCC[C@H](NC(=O)[C@H](CC(C)C)NC(=O)[C@H](C)NC(=O)[C@H](Cc1ccccc1)NC(=O)c1ccc(C(C)(C)C)cc1)C(=O)N[C@@H](CO)C(=O)OC)C(C)C ({Benzoyl(4-tBu)}-FAL[X14]S-OMe) |  | < 4.22 | 7.49 |  | 6.96 | 7.21
COC(=O)[C@H](CO)NC(=O)[C@H](CCCCNC1CC2CCC1C2)NC(=O)[C@H](CC(C)C)NC(=O)[C@H](C)NC(=O)[C@H](Cc1ccccc1)NC(=O)CNC(=O)c1ccccc1 (stereo partly specified) (Bz-GFAL[X8]S-OMe) |  | < 4.22 | 4.29 | < 4.22 | 5.30 | < 4.22
CCN(CC)CCCC[C@H](NC(=O)[C@H](CC(C)C)NC(=O)[C@H](C)NC(=O)[C@H](Cc1ccccc1)NC(=O)Cc1ccc2ccccc2c1)C(=O)N[C@@H](CO)C(=O)OC ({Acetyl(2-naphthyl)}-FAL[Lys(Et2)]S-OMe) |  | < 4.22 | 5.96 | 4.62 | 7.08 | 5.28
CCN(CC)CCCC[C@H](NC(=O)[C@H](CC(C)C)NC(=O)[C@H](C)NC(=O)[C@H](Cc1ccccc1)NC(=O)CNC(=O)c1ccccc1)C(=O)N[C@@H](CO)C(=O)OC (Bz-GFAL[Lys(Et2)]S-OMe) |  |  |  |  |  | 4.34
COC(=O)[C@H](CO)NC(=O)[C@H](CCCCNC1C2CC3CC(C2)CC1C3)NC(=O)[C@H](CC(C)C)NC(=O)[C@H](C)NC(=O)[C@H](Cc1ccccc1)NC(=O)CNC(=O)c1ccccc1 (stereo partly specified) (Bz-GFAL[X5]S-OMe) |  | < 4.22 | < 4.22 | < 4.22 | 4.85 | < 4.22
COC(=O)[C@H](CO)NC(=O)[C@H](CCCCNC(N(C)C)=[N+](C)C)NC(=O)[C@H](CC(C)C)NC(=O)[C@H](C)NC(=O)[C@H](Cc1ccccc1)NC(=O)CNC(=O)c1ccccc1 (Bz-GFAL[X3]S-OMe) |  | < 4.22 | < 4.22 | < 4.22 |  | < 4.22
CCN(CC)CCCC[C@H](NC(=O)[C@H](CC(C)C)NC(=O)[C@H](C)NC(=O)[C@H](Cc1ccccc1)NC(=O)c1ccccc1C)C(=O)N[C@@H](CO)C(=O)OC (X1-FAL[Lys(Et2)]S-OMe) | Active |  |  |  |  | 
CCN(CC)CCCC[C@H](NC(=O)[C@H](CC(C)C)NC(=O)[C@H](C)NC(=O)[C@H](Cc1ccc(CNC(=O)OC(C)(C)C)cc1)NC(=O)c1ccc(C(C)(C)C)cc1)C(=O)N[C@@H](CO)C(=O)OC ({Benzoyl(4-tBu)}-[Phe(4-CH2NH2)](Boc)AL[Lys(Et2)]S-OMe) |  | 4.36 | 7.25 | 5.77 | 6.80 | 
CCN(CC)CCCC[C@H](NC(=O)[C@H](CC(C)C)NC(=O)[C@H](C)NC(=O)[C@H](Cc1ccccc1)NC(=O)c1ccc(OC)cc1)C(=O)N[C@@H](CO)C(=O)OC ({Benzoyl(4-OMe)}-FAL[Lys(Et2)]S-OMe) |  | 4.92 | 6.60 | 5.48 | 6.59 | 6.12
CCN(CC)CCCC[C@H](NC(=O)[C@H](CC(C)C)NC(=O)[C@H](C)NC(=O)[C@H](Cc1ccccc1)NC(=O)Cc1c[nH]c2ccccc12)C(=O)N[C@@H](CO)C(=O)OC (X18-FAL[Lys(Et2)]S-OMe) |  | < 4.22 | 5.77 | 4.82 | 6.96 | 
COC(=O)[C@H](CO)NC(=O)[C@H](CCCCN(C)C1CNC1)NC(=O)[C@H](CC(C)C)NC(=O)[C@H](C)NC(=O)[C@H](Cc1ccccc1)NC(=O)CNC(=O)c1ccccc1 (Bz-GFAL[X19]S-OMe) |  | < 4.22 | < 4.22 | < 4.22 | 5.07 | < 4.22
CCN(CCCC[C@H](NC(=O)[C@H](CC(C)C)NC(=O)[C@H](C)NC(=O)[C@H](Cc1ccccc1)NC(=O)c1ccc(C(C)(C)C)cc1)C(=O)N[C@@H](CO)C(=O)OC)C(C)C ({Benzoyl(4-tBu)}-FAL[Lys(Et,iPr)]S-OMe) |  | < 4.22 |  | 6.00 |  | 
COC(=O)[C@H](CO)NC(=O)[C@H](CCCCN(C(C)=O)C1CC2CCC1C2)NC(=O)[C@H](CC(C)C)NC(=O)[C@H](C)NC(=O)[C@H](Cc1ccccc1)NC(=O)CNC(=O)c1ccccc1 (stereo partly specified) (Bz-GFAL[X17]S-OMe) |  | < 4.22 | < 4.22 | < 4.22 | 4.42 | < 4.22
CCN(CC)CCCC[C@H](NC(=O)[C@H](CC(C)C)NC(=O)[C@H](C)NC(=O)[C@H](Cc1ccccc1)NC(=O)c1cccc(C)c1)C(=O)N[C@@H](CO)C(=O)OC (X2-FAL[Lys(Et2)]S-OMe) | Active |  |  |  |  | 
COC(=O)[C@H](CO)NC(=O)[C@H](CCCCNC1CN2CCC1CC2)NC(=O)[C@H](CC(C)C)NC(=O)[C@H](C)NC(=O)[C@H](Cc1ccccc1)NC(=O)CNC(=O)c1ccccc1 (stereo partly specified) (Bz-GFAL[X15]S-OMe) |  | < 4.22 | < 4.22 | < 4.22 | 4.62 | < 4.22
